Test results as given in ChEMBL document CHEMBL2417410, “Selectivity data: assessment, predictions, concordance, and implications” (J Med Chem, 2013).

Key:
[1] = biological target: Cyclin-dependent kinase 9 (Homo sapiens, UniProt P50750)
[2] = biological target: Serine/threonine-protein kinase pim-1 (Homo sapiens, UniProt P11309); assay: Inhibition of PIM1 (unknown origin)
Serine/threonine-protein kinase pim-1, sequence (P11309 whole entry): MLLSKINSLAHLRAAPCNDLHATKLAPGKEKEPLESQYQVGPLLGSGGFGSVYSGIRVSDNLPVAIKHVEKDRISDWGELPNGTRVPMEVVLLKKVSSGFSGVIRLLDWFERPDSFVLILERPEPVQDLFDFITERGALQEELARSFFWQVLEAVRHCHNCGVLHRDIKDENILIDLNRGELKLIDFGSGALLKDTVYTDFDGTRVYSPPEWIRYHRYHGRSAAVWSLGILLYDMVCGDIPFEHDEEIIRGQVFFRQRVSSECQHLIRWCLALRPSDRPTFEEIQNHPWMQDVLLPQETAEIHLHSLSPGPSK

Cyclin-dependent kinase 9, sequence (P50750 whole entry): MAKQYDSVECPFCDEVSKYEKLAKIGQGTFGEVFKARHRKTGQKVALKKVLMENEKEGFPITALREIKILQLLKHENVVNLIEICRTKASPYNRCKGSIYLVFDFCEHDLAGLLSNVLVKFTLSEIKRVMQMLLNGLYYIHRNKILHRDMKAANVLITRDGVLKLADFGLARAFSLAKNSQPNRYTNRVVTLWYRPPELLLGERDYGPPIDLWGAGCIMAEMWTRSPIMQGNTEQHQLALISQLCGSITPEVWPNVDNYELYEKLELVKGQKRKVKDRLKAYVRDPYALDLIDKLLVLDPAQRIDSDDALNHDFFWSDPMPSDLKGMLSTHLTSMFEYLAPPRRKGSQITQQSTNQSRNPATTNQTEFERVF

Compound | IC50 [1] [nM] | IC50 [2] [nM]
NC(=O)c1cc(-c2ccnc(N)n2)[nH]c1-c1ccc(Cl)cc1Cl | 10 | 
Cc1n[nH]c2ccc(-c3cccnc3)cc12 | 631 | 
CN1CCN(c2nc(C3=C(c4c[nH]c5ccccc45)C(=O)NC3=O)c3ccccc3n2)CC1 [SOTRASTAURIN] |  | 50.1
